In brackets after ≈: the same amount, converted by molar mass.
Tests used:
[1] = Solubility test (24 h shaking at room temperature, HPLC); assay type: physicochemical; settings: thermodynamic from solid
Protocol: About 1 mg of the test compound was weighed into a test tube and 1 mL of a test solution was added. For the test solutions, a 0.1 M hydrochloric acid aqueous solution (pH 1) and Britton-Robinson buffers (pH 3, pH 5 and pH 7; ionic strength 0.3) were used. The test solution was shaken at room temperature for 24 hours and subsequently filtered through a filter. A concentration of the test compound in the filtrate was measured by high-performance liquid chromatography to evaluate solubility. […] Additionally, high-performance liquid chromatography (HPLC) conditions are shown below.
Column; YMC-Pack Pro C18, 4.6 mm×35 mm, 3 μm
Mobile phase A; water:acetonitrile:70% perchloric acid=900:100:1
Mobile phase B; water:acetonitrile:70% perchloric acid=100:900:1
Column temperature; 40° C.
Detection wavelength; 275 nm

[2] = Dissolution test by the paddle method in FaSSIF; assay type: physicochemical; settings: FaSSIF pH 6.5, 37° C., 50 rpm, about 10 mg in 100 mL
Protocol: The dissolution test was carried out by the paddle method using FaSSIF (an aqueous solution containing 3 mM sodium taurocholate, 0.75 mM lecithin, 29 mM sodium dihydrogen phosphate and 103 mM potassium chloride and adjusted to pH 6.5 by adding dropwise a sodium hydroxide aqueous solution) as the test solution. About 10 mg of the test compound was added to 100 mL of the test solution. Under the condition at 37° C. and 50 rpm, the test solution was stirred using a paddle. After the start of the stirring, 1 mL of the test solution was collected at each of the time points shown in Table 6 and filtered through a filter. A concentration of the test compound in the filtrate was measured by high-performance liquid chromatography (HPLC conditions were the same conditions described in Test Example 2).

[3] = aqueous buffer, pH 3, Britton-Robinson buffer
[4] = aqueous buffer, pH 5, Britton-Robinson buffer
[5] = aqueous buffer, pH 7, Britton-Robinson buffer
[6] = simulated gastric fluid, pH 1, 0.1M hydrochloric acid aqueous solution

| solubility at 24 h [1, 3] [µg/mL] | solubility at 24 h [1, 4] [µg/mL] | solubility at 24 h [1, 5] [µg/mL] | solubility at 24 h [1, 6] [µg/mL] | Concentration of Test compound ([2]; 10 Min) [ng/mL] | Concentration of Test compound ([2]; 20 Min) [ng/mL] | Concentration of Test compound ([2]; 24 Hours) [ng/mL] | Concentration of Test compound ([2]; 30 Min) [ng/mL] | Concentration of Test compound ([2]; 40 Min) [ng/mL] | Concentration of Test compound ([2]; 60 Min) [ng/mL] | Concentration of Test compound ([2]; 90 Min) [ng/mL] | Concentration of Test compound ([2]; 120 Min) [ng/mL] | Concentration of Test compound ([2]; 180 Min) [ng/mL] | Concentration of Test compound ([2]; 240 Min) [ng/mL] | SMILES |
| --- | --- | --- | --- | --- | --- | --- | --- | --- | --- | --- | --- | --- | --- | --- |
| < 1 | 1 | > 1200 | 4 | 30000 | 38000 | 103000 | 46000 | 51000 | 61000 | 72000 | 78000 | 85000 | 87000 | CO[C@H]1CN(C(=O)c2cc3nc(-c4cc(F)c(Cl)c(F)c4)cc(N(C)c4c(C)cccc4F)n3n2)CC[C@H]1CC(=O)O.Cl [Example 1, 2-((3R,4S)-1-(5-(4-chloro-3,5-difluorophenyl)-7-((2-fluoro-6-methylphenyl)(methyl)amino)pyrazolo[1,5-a]pyrimidine-2-carbonyl)-3-methoxypiperidin-4-yl)acetic Acid Hydrochloride] |
| < 1 | < 1 | 13 (≈ 21.6 µM) | < 1 | 4000 | 7000 | 18000 | 8000 | 9000 | 10000 | 11000 | 11000 | 12000 | 12000 | CO[C@H]1CN(C(=O)c2cc3nc(-c4cc(F)c(Cl)c(F)c4)cc(N(C)c4c(C)cccc4F)n3n2)CC[C@H]1CC(=O)O [Reference Example 4, 2-((3R,4S)-1-(5-(4-chloro-3,5-difluorophenyl)-7-((2-fluoro-6-methylphenyl)(methyl)amino)pyrazolo[1,5-a]pyrimidine-2-carbonyl)-3-methoxypiperidin-4-yl)acetic Acid] |

Reference: patent publication US11312720B2, “Hydrochloride salt of 2-((3R,4S)-1-(5-(4-chloro-3,5-difluorophenyl)-7-((2-fluoro-6-methylphenyl)(methyl)amino)pyrazolo[1,5-a]pyrimidine-2-carbonyl)-3-methoxypiperidin-4-yl) acetic acid and crystals thereof” (Eisai R&D Management Co., Ltd., priority 2018, dated 2022)
